Laboratory results reported in patent US20060128724A1, “Pyrazole-substituted aminoheteroaryl compounds as protein kinase inhibitors” (AGOURON PHARMACEUTICALS, INC., priority 2004, published 2006).
Read-outs that look alike come from different tables or passages of the source.

Target: T1, c-MET (HGFR) (Homo sapiens, UniProt P08581)
T1 construct: purchased Upstate 14-526
Experiment: HGFR Continuous-Coupled Spectrophotometric Assay
Type: biochemical
Settings: Met-2 substrate peptide, 50 nM HGFR, 37° C.
Summary of the method: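 Tyrosine kinase activity of 50 nM HGFR on the activation-loop Met-2 peptide, followed as NADH consumption at 340 nm over 10 min at 37 °C in a pyruvate kinase/LDH coupled system, HEPES pH 7.5 buffer with MgCl2 and DTT.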

T1 sequence (P08581 974-1390 limits assumed): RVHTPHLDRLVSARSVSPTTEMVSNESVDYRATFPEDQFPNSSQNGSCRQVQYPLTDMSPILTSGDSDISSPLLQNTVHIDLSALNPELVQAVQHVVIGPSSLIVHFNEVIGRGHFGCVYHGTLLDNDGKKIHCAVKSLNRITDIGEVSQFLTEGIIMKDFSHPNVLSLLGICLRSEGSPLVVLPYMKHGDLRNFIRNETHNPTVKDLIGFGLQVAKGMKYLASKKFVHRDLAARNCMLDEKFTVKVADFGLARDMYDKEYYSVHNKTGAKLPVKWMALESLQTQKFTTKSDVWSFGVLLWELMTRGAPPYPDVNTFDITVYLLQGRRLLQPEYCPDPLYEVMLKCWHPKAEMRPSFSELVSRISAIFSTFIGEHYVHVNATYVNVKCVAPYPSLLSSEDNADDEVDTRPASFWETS

| Compound | Ki (read-out: c-Met Ki) [nM] | Ki (read-out: Met Ki) [nM] |
| --- | --- | --- |
| CCOC(=O)c1cnn(-c2cnc(N)c(OC(C)c3c(Cl)ccc(F)c3Cl)c2)c1 (stereo not drawn) [Example 80, 1-{6-Amino-5-[1-(2,6-dichloro-3-fluoro-phenyl)-ethoxy]-pyridin-3-yl}-1H-pyrazole-4-carboxylic acid ethyl ester] | 2050 |  |
| COC(=O)C1CC(n2cc(-c3cnc(N)c(OC(C)c4c(Cl)ccc(F)c4Cl)c3)cn2)CN1 (stereo not drawn) [Example 88, 4-(4-{6-Amino-5-[1-(2,6-dichloro-3-fluoro-phenyl)-ethoxy]-pyridin-3-yl}-pyrazol-1-yl)-pyrrolidine-2-carboxylic acid methyl ester] | 34 |  |
| CNC(=O)C1CC(n2cc(-c3cnc(N)c(OC(C)c4c(Cl)ccc(F)c4Cl)c3)cn2)CN1 (stereo not drawn) [Example 90, 4-(4-{6-Amino-5-[1-(2,6-dichloro-3-fluoro-phenyl)-ethoxy]-pyridin-3-yl}-pyrazol-1-yl)-pyrrolidine-2-carboxylic acid methylamide] | 34 |  |
| CC(Oc1cc(-c2cnn(C3CNC(C(N)=O)C3)c2)cnc1N)c1c(Cl)ccc(F)c1Cl (stereo not drawn) [Example 91, 4-(4-{6-Amino-5-[1-(2,6-dichloro-3-fluoro-phenyl)-ethoxy]-pyridin-3-yl}pyrazol-1-yl)-pyrrolidine-2-carboxylic acid amide] | 44 |  |
| Cc1noc(C)c1Cn1cc(-c2cnc(N)c(OC(C)c3c(Cl)ccc(F)c3Cl)c2)cn1 (stereo not drawn) [Example 93, 3-[1-(2,6-dichloro-3-fluorophenyl)ethoxy]-5-{1-[(3,5-dimethylisoxazol-4-yl)methyl]-1H-pyrazol-4-yl}pyridin-2-amine] | 69 |  |
| CC(Oc1cc(-c2cnn(C3CCN(C(=O)OC(C)(C)C)CC3)c2)cnc1N)c1c(Cl)ccc(F)c1Cl (stereo not drawn) [Example 94, tert-butyl 4-(4-{6-amino-5-[1-(2,6-dichloro-3-fluorophenyl)ethoxy]pyridin-3-yl}-1H-pyrazol-1-yl)piperidine-1-carboxylate] | 35 |  |
| CC(Oc1cc(-c2cnn(C3CCN(C(=O)OCCO)CC3)c2)cnc1N)c1c(Cl)ccc(F)c1Cl (stereo not drawn) [Example 95, 2-hydroxyethyl 4-(4-{6-amino-5-[1-(2,6-dichloro-3-fluorophenyl)ethoxy]pyridin-3-yl}-1H-pyrazol-1-yl)piperidine-1-carboxylate] | 10 |  |
| CC(Oc1cc(-c2cnn(C3CN(C(C)C)C3)c2)cnc1N)c1c(Cl)ccc(F)c1Cl (stereo not drawn) [Example 97, 3-[1-(2,6-dichloro-3-fluorophenyl)ethoxy]-5-[1-(1-isopropylazetidin-3-yl)-1H-pyrazol-4-yl]pyridin-2-amine] | 30 |  |
| CC(Oc1cc(-c2cnn(C3CCN(CC(N)=O)CC3)c2)cnc1N)c1c(Cl)ccc(F)c1Cl (stereo not drawn) [Example 98, 2-[4-(4-{6-amino-5-[1-(2,6-dichloro-3-fluorophenyl)ethoxy]pyridin-3-yl}-1H-pyrazol-1-yl)piperidin-1-yl]acetamide] | 7 |  |
| CC(Oc1cc(-c2cnn(C3CC4CCC(C3)N4)c2)cnc1N)c1c(Cl)ccc(F)c1Cl (stereo not drawn) [Example 99, 5-[1-(8-azabicyclo[3.2.1]oct-3-yl)-1H-pyrazol-4-yl]-3-[1-(2,6-dichloro-3-fluorophenyl)ethoxy]pyridin-2-amine] | 5 |  |
| CCOC(=O)N1CCC(n2cc(-c3cnc(N)c(OC(C)c4c(Cl)ccc(F)c4Cl)c3)cn2)CC1 (stereo not drawn) [Example 101, ethyl 4-(4-{6-amino-5-[1-(2,6-dichloro-3-fluorophenyl)ethoxy]pyridin-3-yl}-1H-pyrazol-1-yl)piperidine-1-carboxylate] | 19 |  |
| CC(Oc1cc(-c2cnn(C3CN(S(C)(=O)=O)C3)c2)cnc1N)c1c(Cl)ccc(F)c1Cl (stereo not drawn) [Example 104, 3-[1-(2,6-dichloro-3-fluorophenyl)ethoxy]-5-{1-[1-(methylsulfonyl)azetidin-3-yl]-1H-pyrazol-4-yl}pyridin-2-amine] | 36 |  |
| CC(Oc1cc(-c2cnn(C3CN(C(=O)CO)C3)c2)cnc1N)c1c(Cl)ccc(F)c1Cl (stereo not drawn) [Example 105, 2-[3-(4-{6-amino-5-[1-(2,6-dichloro-3-fluorophenyl)ethoxy]pyridin-3-yl}1H-pyrazol-1-yl)azetidin-1-yl]-2-oxoethanol] | 22 |  |
| CC(Oc1cc(-c2cnn(CC3CN(S(C)(=O)=O)C3)c2)cnc1N)c1c(Cl)ccc(F)c1Cl (stereo not drawn) [Example 107, 3-[1-(2,6-dichloro-3-fluorophenyl)ethoxy]-5-(1-{[1-(methylsulfonyl)azetidin-3-yl]methyl}-1H-pyrazol-4-yl)pyridin-2-amine] | 44 |  |
| CC(Oc1cc(-c2cnn(C3CN(CC(N)=O)C3)c2)cnc1N)c1c(Cl)ccc(F)c1Cl (stereo not drawn) [Example 109, 2-[3-(4-{6-amino-5-[1-(2,6-dichloro-3-fluorophenyl)ethoxy]pyridin-3-yl}1H-pyrazol-1-yl)azetidin-1-yl]acetamide] | 21 |  |
| CC(=O)N1CC(n2cc(-c3cnc(N)c(OC(C)c4c(Cl)ccc(F)c4Cl)c3)cn2)C1 (stereo not drawn) [Example 110, 5-[1-(1-acetylazetidin-3-yl)-1H-pyrazol-4-yl]-3-[1-(2,6-dichloro-3-fluorophenyl)ethoxy]pyridin-2-amine] | 32 |  |
| CC(Oc1cc(-c2cnn(C3CC4CCC(C3)N4C)c2)cnc1N)c1c(Cl)ccc(F)c1Cl (stereo not drawn) [Example 115, 3-[1-(2,6-dichloro-3-fluorophenyl)ethoxy]-5-[1-(8-methyl-8-azabicyclo[3.2.1]oct-3-yl)-1H-pyrazol-4-yl]pyridin-2-amine] | 9 |  |
| CC(Oc1cc(-c2cnn(C3CCS(=O)(=O)CC3)c2)cnc1N)c1c(Cl)ccc(F)c1Cl (stereo not drawn) [Example 116, 3-[1-(2,6-dichloro-3-fluorophenyl)ethoxy]-5-[1-(1,1-dioxidotetrahydro-2H-thiopyran-4-yl)-1H-pyrazol-4-yl]pyridin-2-amine] | 17 |  |
| CC(Oc1cc(-c2cnn(C3CCCS(=O)(=O)C3)c2)cnc1N)c1c(Cl)ccc(F)c1Cl (stereo not drawn) [Example 117, 3-[1-(2,6-dichloro-3-fluorophenyl)ethoxy]-5-[1-(1,1-dioxidotetrahydro-2H-thiopyran-3-yl)-1H-pyrazol-4-yl]pyridin-2-amine] | 14 |  |
| CCS(=O)(=O)N1CCC(n2cc(-c3cnc(N)c(OC(C)c4c(Cl)ccc(F)c4Cl)c3)cn2)CC1 (stereo not drawn) [Example 121] |  | 16 |

Second part, the molecule after the results:

| Ki (read-out: c-Met Ki) [nM] | Ki (read-out: Met Ki) [nM] | Compound |
| --- | --- | --- |
| 56 |  | CC(Oc1cc(-c2cnn(CC3CCNCC3)c2)cnc1N)c1c(Cl)ccc(F)c1Cl (stereo not drawn) [Example 81, 3-[1-(2,6-Dichloro-3-fluoro-phenyl)-ethoxy]-5-(1-piperidin-4-ylmethyl-1H-pyrazol-4-yl)-pyridin-2-ylamine] |
| 47 |  | CC(Oc1cc(-c2cnn(CCN3CCNCC3)c2)cnc1N)c1c(Cl)ccc(F)c1Cl (stereo not drawn) [Example 82, 3-[1-(2,6-Dichloro-3-fluoro-phenyl)-ethoxy]-5-[1-(2-piperazin-1-yl-ethyl)-1H-pyrazol-4-yl]-pyridin-2-ylamine] |
| 46 |  | CC(Oc1cc(-c2cnn(CCO)c2)cnc1N)c1c(Cl)ccc(F)c1Cl (stereo not drawn) [Example 83, 2-(4-{6-Amino-5-[1-(2,6-dichloro-3-fluoro-phenyl)-ethoxy]-pyridin-3-yl}-pyrazol-1-yl)-ethanol] |
| 61 |  | CC(Oc1cc(-c2cnn(CC3COCO3)c2)cnc1N)c1c(Cl)ccc(F)c1Cl (stereo not drawn) [Example 84, 3-[1-(2,6-Dichloro-3-fluoro-phenyl)-ethoxy]-5-(1-[1,3]dioxolan-4-ylmethyl-1H-pyrazol-4-yl)-pyridin-2-ylamine] |
| 30 |  | CC(Oc1cc(-c2cnn(CC3CCN(C(=O)CO)CC3)c2)cnc1N)c1c(Cl)ccc(F)c1Cl (stereo not drawn) [Example 85, 1-[4-(4-{6-Amino-5-[1-(2,6-dichloro-3-fluoro-phenyl)-ethoxy]-pyridin-3-yl}-pyrazol-1-ylmethyl)-piperidin-1-yl]-2-hydroxy-ethanone] |
| 24 |  | CC(Oc1cc(-c2cnn(CC3CCN(C)CC3)c2)cnc1N)c1c(Cl)ccc(F)c1Cl (stereo not drawn) [Example 89, 3-[1-(2,6-Dichloro-3-fluoro-phenyl)-ethoxy]-5-[1-(1-methyl-piperidin-4-ylmethyl)-1H-pyrazol-4-yl]-pyridin-2-ylamine] |
| 40 |  | CC(Oc1cc(-c2cnn(Cc3nn[nH]n3)c2)cnc1N)c1c(Cl)ccc(F)c1Cl (stereo not drawn) [Example 100, 3-[1-(2,6-dichloro-3-fluorophenyl)ethoxy]-5-[1-(2H-tetrazol-5-ylmethyl)-1H-pyrazol-4-yl]pyridin-2-amine] |
| 50 |  | CC(Oc1cc(-c2cnn(C3CN(CCO)C3)c2)cnc1N)c1c(Cl)ccc(F)c1Cl (stereo not drawn) [Example 102, 2-[3-(4-{6-amino-5-[1-(2,6-dichloro-3-fluorophenyl)ethoxy]pyridin-3-yl}11H-pyrazol-1-yl)azetidin-1-yl]ethanol] |
| 70 |  | COCCN1CC(n2cc(-c3cnc(N)c(OC(C)c4c(Cl)ccc(F)c4Cl)c3)cn2)C1 (stereo not drawn) [Example 103, 3-[1-(2,6-dichloro-3-fluorophenyl)ethoxy]-5-{1-[1-(2-methoxyethyl)azetidin-3-yl]-1H-pyrazol-4-yl}-pyridin-2-amine] |
| 29 |  | CC(=O)N1CC(Cn2cc(-c3cnc(N)c(OC(C)c4c(Cl)ccc(F)c4Cl)c3)cn2)C1 (stereo not drawn) [Example 106, 5-{1-[(1-acetylazetidin-3-yl)methyl]-1H-pyrazol-4-yl}-3-[1-(2,6-dichloro-3-fluorophenyl)ethoxy]pyridin-2-amine] |
| 57 |  | CC(Oc1cc(-c2cnn(CC3CN(C(C)C)C3)c2)cnc1N)c1c(Cl)ccc(F)c1Cl (stereo not drawn) [Example 108, 3-[1-(2,6-dichloro-3-fluorophenyl)ethoxy]-5-{1-[(1-isopropylazetidin-3-yl)methyl]-1H-pyrazol-4-yl}pyridin-2-amine] |
| 37 |  | CC(Oc1cc(-c2cnn(CC3CN(CC#N)C3)c2)cnc1N)c1c(Cl)ccc(F)c1Cl (stereo not drawn) [Example 111, {3-[(4-{6-amino-5-[1-(2,6-dichloro-3-fluorophenyl)ethoxy]pyridin-3-yl}-1H-pyrazol-1-yl)methyl]azetidin-1-yl}acetonitrile] |
| 47 |  | CC(Oc1cc(-c2cnn(CC3CN(CC4CC4)C3)c2)cnc1N)c1c(Cl)ccc(F)c1Cl (stereo not drawn) [Example 112, 5-(1-{[1-(cyclopropylmethyl)azetidin-3-yl]methyl}1H-pyrazol-4-yl)-3-[1-(2,6-dichloro-3-fluorophenyl)ethoxy]pyridin-2-amine] |
